Earlier results as cited in patent publication US20220000962A1, “PLANT-BASED BIOLOGICALLY ACTIVE SUBSTANCE HAVING A POLYPHARMACOLOGICAL EFFECT” (priority 2015, published 2022).

System: CMV
Details: tricin obtained from Sasa albo-marginata

## COc1cc(-c2cc(=O)c3c(O)cc(O)cc3o2)cc(OC)c1O [tricin, 5,7,4-trihydroxy-3′,5′-dimethoxyflavone]
  concentration which inhibits development of CMV infection on the cellular level for 50%: 0.139 µg/mL
read-out: concentration which inhibits development of CMV infection on the cellular level for 50%
  IC50: 420 nM
